The supplement of paper PMC6965134
Values belong to the compound of their own block, whether it stands above or below them.

Test: TIMS collisional cross section (CCS, N2) of the lipid ion; higher = larger ion cross section
Details: ionization mode: negative, one isomer drawn
Protocol: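 Lipid extracts of human plasma (NIST SRM 1950), mouse liver or HeLa cells were separated by nanoflow C18 LC (30 min gradient) and analysed by TIMS-PASEF on a timsTOF Pro. Ion mobility was calibrated with the Agilent tuning mix (negative mode ions) and converted to collisional cross sections (Mason–Schamp, N2).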

[1] = sample type: Mouse Liver, ion (formula + adduct): [C40H75O10P-H] 1-
[2] = sample type: Human plasma, ion (formula + adduct): [C47H83O13P-H] 1-
[3] = sample type: Human plasma, ion (formula + adduct): [C45H81O13P-H] 1-
[4] = sample type: Mouse Liver, ion (formula + adduct): [C45H81O13P-H] 1-
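Further: lipids from MTBE extraction, five replicate injections per sample, 100 ms TIMS ramp spanning 0.6–1.95 Vs/cm², lipid identity assigned from PASEF MS/MS spectra.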

TIMS collisional cross section (sample type: Human plasma, ion (formula + adduct): [C43H78NO7P-H] 1-): 276.3 Å²
Structure (SMILES): CCCCC/C=C\C/C=C\C/C=C\C/C=C\CCCCCC(=O)O[C@H](CO/C=C\CCCCCCCCCCCCCC)COP(=O)(O)OCCN [PE P- 16:0@_22:4]

TIMS collisional cross section (sample type: Human plasma, ion (formula + adduct): [C43H74NO7P-H] 1-): 274 Å²
TIMS collisional cross section (sample type: Mouse Liver, ion (formula + adduct): [C43H74NO7P-H] 1-): 274.6 Å²
Structure (SMILES): CC/C=C\C/C=C\C/C=C\C/C=C\C/C=C\C/C=C\CCC(=O)O[C@H](CO/C=C\CCCCCCCCCCCCCC)COP(=O)(O)OCCN [PE P- 16:0@_22:6]

TIMS collisional cross section (sample type: Human plasma, ion (formula + adduct): [C41H74NO7P-H] 1-): 270.1 Å²
TIMS collisional cross section (sample type: Mouse Liver, ion (formula + adduct): [C41H74NO7P-H] 1-): 270.1 Å²
Structure (SMILES): CCCCC/C=C\C/C=C\C/C=C\C/C=C\CCCC(=O)O[C@H](CO/C=C\CCCCCCCCCCCCCC)COP(=O)(O)OCCN [PE P- 16:0_20:4]

TIMS collisional cross section (sample type: Human plasma, ion (formula + adduct): [C41H78NO7P-CH3] 1-): 269 Å²
Structure (SMILES): CCCCC/C=C\C/C=C\CCCCCCCC(=O)O[C@H](CO/C=C\CCCCCCCCCCCCCCCC)COP(=O)(O)OCCN [PE P- 18:0@_18:2]

TIMS collisional cross section (sample type: Mouse Liver, ion (formula + adduct): [C43H76NO7P-H] 1-): 274.5 Å²
Structure (SMILES): CC/C=C\C/C=C\C/C=C\C/C=C\C/C=C\CCCC(=O)O[C@H](CO/C=C\CCCCCCCCCCCCCCCC)COP(=O)(O)OCCN [PE P- 18:0@_20:5]

TIMS collisional cross section (sample type: Human plasma, ion (formula + adduct): [C45H78NO7P-CH3] 1-): 276.8 Å²
Structure (SMILES): CC/C=C\C/C=C\C/C=C\C/C=C\C/C=C\C/C=C\CCC(=O)O[C@H](CO/C=C\CCCCCCCCCCCCCCCC)COP(=O)(O)OCCN [PE P- 18:0@_22:6]

TIMS collisional cross section (sample type: Human plasma, ion (formula + adduct): [C41H78NO7P-H] 1-): 272.4 Å²
Structure (SMILES): CCCCC/C=C\C/C=C\CCCCCCCC(=O)O[C@H](CO/C=C\CCCCCCCCCCCCCCCC)COP(=O)(O)OCCN [PE P- 18:0_18:2]

TIMS collisional cross section (sample type: Mouse Liver, ion (formula + adduct): [C45H82NO7P-H] 1-): 281.9 Å²
Structure (SMILES): CCCCC/C=C\C/C=C\C/C=C\C/C=C\CCCCCC(=O)O[C@H](CO/C=C\CCCCCCCCCCCCCCCC)COP(=O)(O)OCCN [PE P- 18:0_22:4]

TIMS collisional cross section (sample type: Mouse Liver, ion (formula + adduct): [C45H76NO7P-H] 1-): 278.5 Å²
Structure (SMILES): CC/C=C\C/C=C\C/C=C\C/C=C\C/C=C\C/C=C\CCC(=O)O[C@H](CO/C=C\CCCCCC/C=C\CCCCCCCC)COP(=O)(O)OCCN [PE P- 18:1@_22:6]

TIMS collisional cross section (sample type: Human plasma, ion (formula + adduct): [C43H82NO7P-H] 1-): 278.6 Å²
Structure (SMILES): CCCCC/C=C\C/C=C\CCCCCCCC(=O)O[C@H](CO/C=C\CCCCCCCCCCCCCCCCCC)COP(=O)(O)OCCN [PE P- 20:0@_18:2]

TIMS collisional cross section (sample type: Mouse Liver, ion (formula + adduct): [C40H77O10P-H] 1-): 275.7 Å²
Structure (SMILES): CCCCCCCCC=CCCCCCCCC(=O)OC(COC(=O)CCCCCCCCCCCCCCC)COP(=O)(O)OCC(O)CO (stereo not drawn) [PG 16:0_18:1]

TIMS collisional cross section [1]: 273.4 Å²
Structure (SMILES): CCCCC/C=C\C/C=C\CCCCCCCC(=O)O[C@H](COC(=O)CCCCCCCCCCCCCCC)COP(=O)(O)OC[C@@H](O)CO [PG 16:0_18:2]

TIMS collisional cross section (sample type: Human plasma, ion (formula + adduct): [C45H75O10P+OAcO] 1-): 294.7 Å²
Structure (SMILES): CC/C=C\C/C=C\C/C=C\C/C=C\C/C=C\C/C=C\CCC(=O)O[C@H](COC(=O)CCCCCCC/C=C\CCCCCCC)COP(=O)(O)OC[C@@H](O)CO [PG 17:1@_22:6]

TIMS collisional cross section [1]: 276.9 Å²
Structure (SMILES): CCCCCC/C=C\CCCCCCCC(=O)O[C@H](COC(=O)CCCCCCC/C=C\CCCCCCCC)COP(=O)(O)OC[C@@H](O)CO [PG 18:1_16:1]

TIMS collisional cross section (sample type: Mouse Liver, ion (formula + adduct): [C46H77O10P-H] 1-): 288.6 Å²
Structure (SMILES): CC/C=C\C/C=C\C/C=C\C/C=C\C/C=C\C/C=C\CCC(=O)O[C@H](COC(=O)CCCCCCC/C=C\CCCCCCCC)COP(=O)(O)OC[C@@H](O)CO [PG 18:1_22:6@]

TIMS collisional cross section (sample type: Mouse Liver, ion (formula + adduct): [C42H77O10P-H] 1-): 281.4 Å²
Structure (SMILES): CCCCC/C=C\C/C=C\CCCCCCCC(=O)OC[C@H](COP(=O)(O)OC[C@@H](O)CO)OC(=O)CCCCCCC/C=C\CCCCCCCC [PG 18:2_18:1]

TIMS collisional cross section (sample type: Mouse Liver, ion (formula + adduct): [C46H75O10P-H] 1-): 287.5 Å²
Structure (SMILES): CC/C=C\C/C=C\C/C=C\C/C=C\C/C=C\C/C=C\CCC(=O)O[C@H](COC(=O)CCCCCCC/C=C\C/C=C\CCCCC)COP(=O)(O)OC[C@@H](O)CO [PG 18:2_22:6]

TIMS collisional cross section (sample type: Mouse Liver, ion (formula + adduct): [C44H77O10P-H] 1-): 285.3 Å²
Structure (SMILES): CCCCC/C=C\C/C=C\C/C=C\C/C=C\CCCC(=O)OC[C@H](COP(=O)(O)OC[C@@H](O)CO)OC(=O)CCCCCCC/C=C\CCCCCCCC [PG 20:4_18:1@]

TIMS collisional cross section (sample type: Mouse Liver, ion (formula + adduct): [C44H75O10P-H] 1-): 284.1 Å²
Structure (SMILES): CCCCC/C=C\C/C=C\C/C=C\C/C=C\CCCC(=O)OC[C@H](COP(=O)(O)OC[C@@H](O)CO)OC(=O)CCCCCCC/C=C\C/C=C\CCCCC [PG 20:4_18:2]

TIMS collisional cross section (sample type: Mouse Liver, ion (formula + adduct): [C48H75O10P-H] 1-): 291.4 Å²
Structure (SMILES): CC/C=C\C/C=C\C/C=C\C/C=C\C/C=C\C/C=C\CCC(=O)O[C@H](COC(=O)CCC/C=C\C/C=C\C/C=C\C/C=C\CCCCC)COP(=O)(O)OC[C@@H](O)CO [PG 20:4_22:6]

TIMS collisional cross section (sample type: Mouse Liver, ion (formula + adduct): [C44H73O10P-H] 1-): 283 Å²
Structure (SMILES): CC/C=C\C/C=C\C/C=C\C/C=C\C/C=C\C/C=C\CCC(=O)OC[C@H](COP(=O)(O)OC[C@@H](O)CO)OC(=O)CCCCCCC/C=C\CCCCCC [PG 22:6@_16:1]

TIMS collisional cross section (sample type: Mouse Liver, ion (formula + adduct): [C50H79O10P-H] 1-): 297.7 Å²
Structure (SMILES): CC/C=C\C/C=C\C/C=C\C/C=C\C/C=C\C/C=C\CCC(=O)OC[C@H](COP(=O)(O)OC[C@@H](O)CO)OC(=O)CCCCC/C=C\C/C=C\C/C=C\C/C=C\CCCCC [PG 22:6@_22:4]

TIMS collisional cross section (sample type: Mouse Liver, ion (formula + adduct): [C50H75O10P-H] 1-): 294.8 Å²
Structure (SMILES): CC/C=C\C/C=C\C/C=C\C/C=C\C/C=C\C/C=C\CCC(=O)OC[C@H](COP(=O)(O)OC[C@@H](O)CO)OC(=O)CC/C=C\C/C=C\C/C=C\C/C=C\C/C=C\C/C=C\CC [PG 22:6_22:6]

TIMS collisional cross section (sample type: Human plasma, ion (formula + adduct): [C41H73O13P+AcO] 1-): 287.2 Å²
Structure (SMILES): CCCC/C=C\CCCCCCCC(=O)OCC(COP(=O)(O)OC1C(O)C(O)C(O)C(O)C1O)OC(=O)CCCCCCC/C=C\C/C=C\CCCCC (stereo not drawn) [PI 14:1@_18:2]

TIMS collisional cross section (sample type: Human plasma, ion (formula + adduct): [C41H77O13P-H] 1-): 282.6 Å²
Structure (SMILES): CCCCCC/C=C\CCCCCCCC(=O)OC[C@H](COP(=O)(O)OC1C(O)C(O)C(O)[C@@H](O)C1O)OC(=O)CCCCCCCCCCCCCCC (stereo partly drawn) [PI 16:1_16:0@]

TIMS collisional cross section [2]: 298.1 Å²
Structure (SMILES): CCCCC/C=C\C/C=C\C/C=C\C/C=C\CCCC(=O)O[C@H](COC(=O)CCCCCCCCCCCCCCCCC)COP(=O)(O)OC1C(O)C(O)C(O)[C@@H](O)C1O (stereo partly drawn) [PI 18:0_20:4@]

TIMS collisional cross section [2]: 297.6 Å²
TIMS collisional cross section (sample type: Mouse Liver, ion (formula + adduct): [C47H83O13P-H] 1-): 297.6 Å²
Structure (SMILES): CCCCC/C=C\C/C=C\C/C=C\C/C=C\CCCC(=O)O[C@H](COC(=O)CCCCCCCCCCCCCCCCC)COP(=O)(O)OC1C(O)C(O)C(O)[C@@H](O)C1O (stereo partly drawn) [PI 18:0_20:4]

TIMS collisional cross section (sample type: Human plasma, ion (formula + adduct): [C46H85O13P-CH3] 1-): 293.6 Å²
Structure (SMILES): CCCCCCCC/C=C\CCCCCCCC(=O)OCC(COP(=O)(O)OC1C(O)C(O)C(O)C(O)C1O)OC(=O)CCCCCCC/C=C\CCCCCCCCC (stereo not drawn) [PI 18:1_19:1]

TIMS collisional cross section (sample type: Mouse Liver, ion (formula + adduct): [C49H81O13P-H] 1-): 299.8 Å²
Structure (SMILES): CC/C=C\C/C=C\C/C=C\C/C=C\C/C=C\C/C=C\CCC(=O)O[C@H](COC(=O)CCCCCCC/C=C\CCCCCCCC)COP(=O)(O)OC1C(O)C(O)C(O)[C@@H](O)C1O (stereo partly drawn) [PI 18:1_22:6@]

TIMS collisional cross section [3]: 292.5 Å²
TIMS collisional cross section [4]: 291.9 Å²
Structure (SMILES): CCCCC/C=C\C/C=C\CCCCCCCC(=O)OC[C@H](COP(=O)(O)OC1[C@H](O)[C@H](O)C(O)[C@H](O)[C@H]1O)OC(=O)CCCCCCC/C=C\CCCCCCCC (stereo partly drawn) [PI 18:2_18:1]

TIMS collisional cross section (sample type: Mouse Liver, ion (formula + adduct): [C45H79O13P-H] 1-): 290.2 Å²
Structure (SMILES): CCCCC/C=C\C/C=C\CCCCCCCC(=O)OC[C@H](COP(=O)(O)OC1C(O)C(O)C(O)[C@@H](O)C1O)OC(=O)CCCCCCC/C=C\C/C=C\CCCCC (stereo partly drawn) [PI 18:2_18:2]

TIMS collisional cross section (sample type: Human plasma, ion (formula + adduct): [C47H87O13P-H] 1-): 300.4 Å²
Structure (SMILES): CCCCC/C=C\C/C=C\CCCCCCCCCC(=O)OC[C@H](COP(=O)(O)OC1[C@H](O)[C@H](O)C(O)[C@H](O)[C@H]1O)OC(=O)CCCCCCCCCCCCCCCCC (stereo partly drawn) [PI 20:2_18:0@]

TIMS collisional cross section [3]: 298.9 Å²
Structure (SMILES): CCCCC/C=C\C/C=C\C/C=C\CCCCCCC(=O)OC[C@H](COP(=O)(O)OC1[C@H](O)[C@H](O)C(O)[C@H](O)[C@H]1O)OC(=O)CCCCCCCCCCCCCCC (stereo partly drawn) [PI 20:3@_16:0]

TIMS collisional cross section [4]: 293.1 Å²
Structure (SMILES): CCCCC/C=C\C/C=C\C/C=C\CCCCCCC(=O)OC[C@H](COP(=O)(O)OC1[C@H](O)[C@H](O)C(O)[C@H](O)[C@H]1O)OC(=O)CCCCCCCCCCCCCCC (stereo partly drawn) [PI 20:3_16:0@]
